Values of other authors in US9375470B2, “Compositions with reduced dimer formation” (Circassia Limited, priority 2008, dated 2016).
Where two headings read alike, the source gives them in different places.

[1] = reported values, Tg for the maximally freeze concentrated state

Row | Tg (reported values) | Tg′ [1] | Tg′ | Teut (eutectic temperature) | Structure (SMILES)
1 | >100 °C |  |  |  | OC[C@H]1O[C@@](CO)(O[C@H]2O[C@H](CO)[C@@H](O)[C@H](O)[C@H]2O)[C@@H](O[C@H]2O[C@H](CO)[C@@H](O)[C@H](O)[C@H]2O)[C@@H]1O [Melezitose]
2 | 70-106 °C | Approx. −36 |  |  | OC[C@H]1O[C@H](OC[C@H]2O[C@H](O[C@]3(CO)O[C@H](CO)[C@@H](O)[C@@H]3O)[C@H](O)[C@@H](O)[C@@H]2O)[C@H](O)[C@@H](O)[C@H]1O [Raffinose]
3 | 81-123 °C |  |  |  | OC[C@H]1O[C@H](OC[C@H]2O[C@H](OC[C@H]3O[C@H](O[C@]4(CO)O[C@H](CO)[C@@H](O)[C@@H]4O)[C@H](O)[C@@H](O)[C@@H]3O)[C@H](O)[C@@H](O)[C@H]2O)[C@H](O)[C@@H](O)[C@H]1O [Stachyose]
4 | 43-65 °C | Approx. −46 | −32 °C |  | OC[C@H]1O[C@@](CO)(O[C@H]2O[C@H](CO)[C@@H](O)[C@H](O)[C@H]2O)[C@@H](O)[C@@H]1O [Sucrose]
5 | 63-115 °C | Approx. −27 |  |  | OC[C@H]1O[C@H](O[C@H]2O[C@H](CO)[C@@H](O)[C@H](O)[C@H]2O)[C@H](O)[C@@H](O)[C@@H]1O [Trehalose]
6 |  |  |  | −3 °C | OC[C@@H](O)[C@@H](O)[C@H](O)[C@H](O)CO [mannitol]
